In patent US20070155795A1, “MUSCARINIC AGONISTS” (ACADIA Pharmaceuticals Inc., priority 2000, published 2007):

Tests used:
[1] = target: T1, m1 muscarinic receptor subtype (Homo sapiens, UniProt P11229); test: R-SAT assay, muscarinic receptor subtype m1; format: cell-based; settings: transfected NIH-3T3 cells, 5 days; for m1 % Eff: relative to maximum response to carbachol
T1 construct: expressed in transfected cells; host or cells: NIH-3T3 (ATCC CRL 1658)
T1 sequence (P11229 1-460): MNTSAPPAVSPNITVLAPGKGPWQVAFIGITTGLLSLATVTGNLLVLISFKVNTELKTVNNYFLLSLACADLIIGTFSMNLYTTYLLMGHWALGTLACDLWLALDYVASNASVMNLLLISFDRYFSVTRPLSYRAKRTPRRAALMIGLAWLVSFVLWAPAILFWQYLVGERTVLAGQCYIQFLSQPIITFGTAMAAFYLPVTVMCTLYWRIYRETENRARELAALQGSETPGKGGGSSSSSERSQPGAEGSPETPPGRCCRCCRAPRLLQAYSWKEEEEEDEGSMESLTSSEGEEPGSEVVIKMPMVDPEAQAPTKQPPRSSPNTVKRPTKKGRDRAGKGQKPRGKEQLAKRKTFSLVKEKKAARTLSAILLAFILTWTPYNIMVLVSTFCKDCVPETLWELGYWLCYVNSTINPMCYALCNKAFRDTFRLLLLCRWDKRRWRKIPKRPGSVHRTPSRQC
Method: (§1) Transfected cells were grown in the presence of between 1 nM and 40 μM of the test compound for 5 days. On day 5, the cells were lysed using 0.5% Nonidet-P and β-galactosidase expression was quantified using the chromogenic substrate o-nitrophenyl-β-D-galactoside (ONGP).
(§2) Data were normalized relative to the maximum response of the cells to the muscarinic agonist carbachol, and the following equation was fitted to the data: • response=minimum+(maximum−minimum)/(1+(EC50/[ligand])) • Where [ligand]=ligand concentration. • % Efficacy was defined as: • (maximum−minimum)/(maximum response of cells to carbachol). • pEC50=−log (EC50). • Where data gave a bell-shaped curve, “maximum” was defined as the highest observed response.

[2] = target: T2, m2 muscarinic receptor subtype (Homo sapiens, UniProt P08172); test: R-SAT assay, muscarinic receptor subtype m2; format: cell-based; settings: transfected NIH-3T3 cells, 5 days, relative to maximum response to carbachol
T2 construct: expressed in transfected cells; host or cells: NIH-3T3 (ATCC CRL 1658)
T2 sequence (P08172 1-466): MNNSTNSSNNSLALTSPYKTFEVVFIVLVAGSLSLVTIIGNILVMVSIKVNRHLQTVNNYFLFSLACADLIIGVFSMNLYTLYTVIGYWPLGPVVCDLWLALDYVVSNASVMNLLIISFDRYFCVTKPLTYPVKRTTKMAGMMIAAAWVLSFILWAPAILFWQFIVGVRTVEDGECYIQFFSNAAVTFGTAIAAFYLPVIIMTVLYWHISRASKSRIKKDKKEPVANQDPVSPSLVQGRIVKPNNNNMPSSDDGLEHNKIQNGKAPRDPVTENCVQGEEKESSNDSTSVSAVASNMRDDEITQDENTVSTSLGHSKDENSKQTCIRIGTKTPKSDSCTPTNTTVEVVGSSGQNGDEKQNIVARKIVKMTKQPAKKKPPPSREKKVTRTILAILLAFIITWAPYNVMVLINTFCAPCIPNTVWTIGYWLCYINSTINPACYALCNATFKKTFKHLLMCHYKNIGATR
Method: (§3) Screening Of Test Compounds In An Assay Using Muscarinic Receptor Subtypes m1, m2, m3, m4 and m5. The m1, m2, m3, m4 and m5 muscarinic receptor subtypes were cloned substantially as described by Bonner et al., Science […] and Bonner et al., Neuron 1:403 (1988). R-SAT assays were carried out substantially as described in U.S. Pat. Nos. 5,707,798, 5,912,132, and 5,955,281, and by Braüner-Osborne & Brann, Eur. J. Pharmacol. 295:93 (1995). NIH-3T3 cells (available from the American Type Culture Collection as ATCC CRL 1658) were transfected with plasmid DNA encoding the m1, m2, m3, m4 or m5 receptors and plasmid DNA encoding β-galactosidase. Transfected cells were grown in the presence of between 1 nM and 40 μM of the test compound for 5 days. On day 5, the cells were lysed using 0.5% Nonidet-P and β-galactosidase expression was quantified using the chromogenic substrate o-nitrophenyl-β-D-galactoside (ONGP).
as §2

[3] = target: T3, m3 muscarinic receptor subtype (Homo sapiens, UniProt P20309); test: R-SAT assay, muscarinic receptor subtype m3; format: cell-based; settings: transfected NIH-3T3 cells, 5 days, relative to maximum response to carbachol
T3 construct: expressed in transfected cells; host or cells: NIH-3T3 (ATCC CRL 1658)
Method: as §3, §2

[4] = target: T4, m4 muscarinic receptor subtype (Homo sapiens, UniProt P08173); test: R-SAT assay, muscarinic receptor subtype m4; format: cell-based; settings: transfected NIH-3T3 cells, 5 days; for m4 % Eff: relative to maximum response to carbachol
T4 construct: expressed in transfected cells; host or cells: NIH-3T3 (ATCC CRL 1658)
T4 sequence (P08173 1-479): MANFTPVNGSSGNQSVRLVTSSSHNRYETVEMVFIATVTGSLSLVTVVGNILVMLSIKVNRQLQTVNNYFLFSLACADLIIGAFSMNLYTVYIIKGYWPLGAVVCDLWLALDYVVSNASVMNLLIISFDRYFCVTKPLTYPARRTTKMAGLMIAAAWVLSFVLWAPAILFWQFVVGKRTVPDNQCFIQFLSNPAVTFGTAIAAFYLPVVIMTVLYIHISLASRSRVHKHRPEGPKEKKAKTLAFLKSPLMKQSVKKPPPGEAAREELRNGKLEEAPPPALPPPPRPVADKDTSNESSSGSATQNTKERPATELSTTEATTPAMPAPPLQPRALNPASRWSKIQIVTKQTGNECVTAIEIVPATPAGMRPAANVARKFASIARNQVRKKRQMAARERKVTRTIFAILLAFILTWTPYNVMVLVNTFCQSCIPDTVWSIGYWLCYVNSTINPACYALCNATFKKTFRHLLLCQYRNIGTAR
Method: as §1, §2

[5] = target: T5, m5 muscarinic receptor subtype (Homo sapiens, UniProt P08912); test: R-SAT assay, muscarinic receptor subtype m5; format: cell-based; settings: transfected NIH-3T3 cells, 5 days; for m5 % Eff: relative to maximum response to carbachol
T5 construct: expressed in transfected cells; host or cells: NIH-3T3 (ATCC CRL 1658)
T5 sequence (P08912 1-532): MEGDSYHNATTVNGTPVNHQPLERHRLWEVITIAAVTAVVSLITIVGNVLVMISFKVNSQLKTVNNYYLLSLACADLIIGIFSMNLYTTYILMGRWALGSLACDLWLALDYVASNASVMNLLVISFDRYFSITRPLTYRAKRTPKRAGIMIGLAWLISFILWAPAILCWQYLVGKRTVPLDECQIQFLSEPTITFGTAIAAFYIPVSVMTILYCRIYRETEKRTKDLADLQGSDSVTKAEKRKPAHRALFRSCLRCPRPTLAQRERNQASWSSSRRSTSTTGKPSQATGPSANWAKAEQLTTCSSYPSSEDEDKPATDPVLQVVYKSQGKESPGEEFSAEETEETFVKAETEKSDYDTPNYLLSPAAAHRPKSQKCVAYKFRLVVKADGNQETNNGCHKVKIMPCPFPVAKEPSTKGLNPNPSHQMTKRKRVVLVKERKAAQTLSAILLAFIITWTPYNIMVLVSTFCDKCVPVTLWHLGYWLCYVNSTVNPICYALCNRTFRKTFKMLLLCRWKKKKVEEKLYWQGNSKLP
Method: as §3, §2

[6] = tested on: Glaucomatous Monkeys; test: Intraocular pressure in glaucomatous monkeys (laser-induced unilateral ocular hypertension); format: in vivo, cynomolgus monkeys (Macacca fascicularis); settings: conscious monkeys
Method: Effects of Compound 35AKU-21 on Intaocular Pressure in Primates. All studies were conducted in fully conscious female cynomolgus monkeys (Macacca fascicularis) weighing 3-4 kg. Unilateral ocular hypertension was produced by argon laser photocoagulation to the mid-trabecular meshwork (Sawyer & McGuigan, Invest. Ophthalmol. Vis. Sci. 29:81(1988)).
Animals were trained to allow measuring intraocular pressure (IOP) with a model 30 Classic pneumatonometer (Mentor O&O Co.). Throughout each study, monkeys sat in specially designed chairs (Primate Products, San Francisco) and fed fruits and juices as needed.
The drug was administered topically. The drug was formulated in an aqueous solution such as distilled water, saline or citrate buffer at a pH 5-7 and applied unilaterally as a 35 μL drop; the contralateral eye received an equal volume of saline (or vehicle). Two baseline measurements were made prior to administration of the drug, followed by periodic measurements up to 6 hours post drug administration.

[7] = in vivo; cited from earlier work

T3 sequence (P20309 whole entry): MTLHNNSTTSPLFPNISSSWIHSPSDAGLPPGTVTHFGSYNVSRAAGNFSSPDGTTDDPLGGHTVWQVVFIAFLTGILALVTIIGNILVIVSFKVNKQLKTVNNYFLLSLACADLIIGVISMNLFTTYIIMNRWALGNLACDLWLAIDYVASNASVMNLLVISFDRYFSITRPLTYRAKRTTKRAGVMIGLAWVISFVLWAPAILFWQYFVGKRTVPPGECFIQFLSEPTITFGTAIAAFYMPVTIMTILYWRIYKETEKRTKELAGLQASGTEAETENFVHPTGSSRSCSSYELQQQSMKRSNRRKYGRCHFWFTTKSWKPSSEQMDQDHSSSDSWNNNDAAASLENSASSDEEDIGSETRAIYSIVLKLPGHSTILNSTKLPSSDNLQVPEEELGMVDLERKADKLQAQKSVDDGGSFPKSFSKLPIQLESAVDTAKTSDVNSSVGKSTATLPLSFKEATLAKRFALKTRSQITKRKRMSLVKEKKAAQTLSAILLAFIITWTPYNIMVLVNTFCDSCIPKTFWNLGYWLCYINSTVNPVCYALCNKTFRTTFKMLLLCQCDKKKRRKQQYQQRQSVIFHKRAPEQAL

Structure (SMILES)	m1 pEC50 [1]	m1 % Eff [1]	m2 % Eff [2]	m3 % Eff [3]	m4 pEC50 [4]	m4 % Eff [4]	m5 % Eff [5]	% IOP Change ([6]; 1 HR after topical 35 μL drop)	% IOP Change ([6]; 2 HR after topical 35 μL drop)	% IOP Change ([6]; 4 HR after topical 35 μL drop)	% IOP Change ([6]; 6 HR after topical 35 μL drop)	EC50 ([1]; read-out: m1 pEC50 (converted))	EC50 ([4]; read-out: m4 pEC50 (converted))	EC50 ([5]; read-out: m5 pEC50 (converted))	patients with elevated liver transaminases (hepatotoxicity) [7]
CCCCC1CCN(CCCn2ncc3ccccc32)CC1 [Example 19, 1-(3-(4-n-Butylpiperidine)-1-yl-propyl)-4H-indazole]	7.3	86%	no response (No response: Efficacy <25% maximum response of carbachol. This level of activity is not considered significantly different to no response.)	no response (No response: Efficacy <25% maximum response of carbachol. This level of activity is not considered significantly different to no response.)	6.5	70%	no response (No response: Efficacy <25% maximum response of carbachol. This level of activity is not considered significantly different to no response.)	−9.3%	−21.3%	−25.9%	−29.2%				
CCCCC1CCN(CCCc2nc3c(C)cccc3[nH]2)CC1 [Example 32, 4-Methyl-2-(3-(4-n-butylpiperidine)-1-yl-propyl)-1H-benzoimidazole]	6.4	52%	no response (No response: Efficacy <25% maximum response of carbachol. This level of activity is not considered significantly different to no response.)	no response (No response: Efficacy <25% maximum response of carbachol. This level of activity is not considered significantly different to no response.)		no response (No response: Efficacy <25% maximum response of carbachol. This level of activity is not considered significantly different to no response.)	no response (No response: Efficacy <25% maximum response of carbachol. This level of activity is not considered significantly different to no response.)								
CCCC1CCN(CCCn2ncc3ccccc32)CC1 [Example 41, 1-(3-(4-Propylpiperidine)-1-yl-propyl)-1H-indazole]		81%	no response (No response: Efficacy <25% maximum response of carbachol. This level of activity is not considered significantly different to no response.)	no response (No response: Efficacy <25% maximum response of carbachol. This level of activity is not considered significantly different to no response.)		69%	31%					126 nM	631 nM	> 3160 nM	
CCCCC1CCN(CCCn2nnc3ccccc32)CC1 [Example 61, 1-[3-(4-Butylpiperidin-1-yl)-propyl]-1H-benzotriazole]	6.3	59%	no response (No response: Efficacy <25% maximum response of carbachol. This level of activity is not considered significantly different to no response.)	no response (No response: Efficacy <25% maximum response of carbachol. This level of activity is not considered significantly different to no response.)	6.0	39%	no response (No response: Efficacy <25% maximum response of carbachol. This level of activity is not considered significantly different to no response.)								
CCCCC1CCN(CCCc2n[nH]c3ccccc23)CC1.Cl [Example 89, 3-[3-(4-Butyl-piperidine-1-yl)-propyl]1-H-indazole, HCl]	7.3	85%	no response (No response: Efficacy <25% maximum response of carbachol. This level of activity is not considered significantly different to no response.)	no response (No response: Efficacy <25% maximum response of carbachol. This level of activity is not considered significantly different to no response.)	6.8	53%	no response (No response: Efficacy <25% maximum response of carbachol. This level of activity is not considered significantly different to no response.)								
Nc1c2c(nc3ccccc13)CCCC2 [tacrine]															about 30%
